Assay results as given in the NIST ThermoML archive (doi:10.1021/acs.jced.5b00535).
± gives the expanded uncertainty stated by the source.

Details: 101.33 kPa, Liquid, Vibrating tube method

mass density (323.15 K): 988.035 ± 0.053 kg/m3 | mass density (328.15 K): 985.693 ± 0.055 kg/m3 | mass density (333.15 K): 983.196 ± 0.057 kg/m3 | mass density (338.15 K): 980.551 ± 0.059 kg/m3 | mass density (343.15 K): 977.765 ± 0.061 kg/m3
Structure (SMILES): O [water]
